Laboratory results: patent US20240041042A1, “1-(PYRIDYL)-5-AZINYLPYRAZOLE DERIVATIVES, AND THEIR USE FOR CONTROL OF UNDESIRED PLANT GROWTH” (Bayer Aktiengesellschaft, priority 2020, published 2024)
Like-named read-outs stand apart in the source and are kept apart here.

Legend:
Format in all cases: in vivo
[1] = test system: Viola tricolor (VIOTR); assay: Pre-emergence herbicidal action against VIOTR; settings: 320 g/ha, Viola tricolor
Outline: (§1)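 Seeds sown in pots and covered with soil; WP or EC formulations sprayed onto the soil surface at 600 l/ha water with 0.5% additive, at 320 g/ha or lower. Greenhouse growth for about 3 weeks, then visual scoring as % effect against untreated controls (100% = plants dead).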

[2] = test system: Polygonum convolvulus (POLCO); assay: Pre-emergence herbicidal action against POLCO; settings: dosage 320 g/ha
Outline: as §1

[3] = test system: Brassica napus (BRSNW); assay: Post-emergence crop plant compatibility, BRSNW; settings: effect in comparison to untreated controls
Protocol: Seeds of monocotyledonous and dicotyledonous weeds and crop plants are placed in sandy loam in plastic or organic planting pots, covered with soil and cultivated in a greenhouse under controlled growth conditions. 2 to 3 weeks after sowing, the test plants are treated at the one-leaf stage. The compounds of the invention, formulated in the form of wettable powders (WP) or as emulsion concentrates (EC), are then sprayed onto the green parts of the plants as aqueous suspension or emulsion with addition of 0.5% additive at a water application rate of 600 l/ha (converted). After the test plants have been kept in the greenhouse under optimum growth conditions for about 3 weeks, the activity of the preparations is rated visually in comparison to untreated controls. For example, 100% activity=the plants have died, 0% activity=like control plants.
The observed effects on selected crop plants are reported here in comparison to the untreated controls (values in %). The appendices “a”, “b” and “c” give differentiation by dosage used with otherwise the same crop plants tested.

[4] = test system: Oryza sativa (ORYSA); settings: crop plant compatibility
Outline: (§2)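 Effects were read visually as % versus untreated controls (0% = no effect, 100% = death) about 3 weeks post-treatment. Application was a post-emergence spray at the one-leaf stage of WP/EC formulations with 0.5% additive at 600 l/ha. Different dosages are denoted a, b and c.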

[5] = test system: Glycine max (GLXMA); assay: Post-emergence crop plant compatibility, GLXMA; settings: post-emergence, effect in comparison to untreated controls
Outline: as §2

[6] = test system: Triticum aestivum (TRZAS); settings: pre-emergence, crop plant compatibility, in comparison to untreated controls
Outline: (§3)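 Crop injury rated visually in percent against untreated plants roughly 3 weeks after treatment (0% no effect, 100% plants dead). Compounds, as WP or EC with 0.5% additive in 600 l/ha water, were applied to the covering soil right after sowing; greenhouse growth. Suffixes a, b, c denote different dosages.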

[7] = test system: Zea mays (ZEAMX); settings: pre-emergence, crop plant compatibility, in comparison to untreated controls
Outline: as §3

[8] = test system: Glycine max (GLXMA); settings: pre-emergence, crop plant compatibility, in comparison to untreated controls
Outline: as §3

[9] = test system: Digitaria sanguinalis (DIGSA); assay: Pre-emergence herbicidal action against DIGSA
Outline: as §1

[10] = test system: Viola tricolor (VIOTR); assay: Post-emergence herbicidal action against VIOTR; settings: 320 g/ha
Outline: (§4)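 Greenhouse plants sprayed at the one-leaf stage, 2–3 weeks after sowing, with WP or EC formulations plus 0.5% additive at 600 l/ha water. Activity rated visually after about 3 weeks versus untreated controls (100% = dead, 0% = like control), at 320 g/ha or lower.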

[11] = test system: Triticum aestivum (TRZAS); settings: crop plant compatibility, effect vs untreated controls
Outline: as §2

[12] = test system: Zea mays (ZEAMX); settings: for Post-emergence action against ZEAMX in % (crop plant compatibility): 20 g/ha, effect in comparison to untreated controls; for Post-emergence action against ZEAMX in %: crop plant compatibility, effect vs untreated controls
Outline: as §2

[13] = test system: Brassica napus (BRSNW); settings: crop plant compatibility, in comparison to untreated controls
Outline: as §3

[14] = test system: Oryza sativa (ORYSA); settings: pre-emergence, crop plant compatibility, in comparison to untreated controls
Outline: as §3

[15] = test system: Setaria viridis (SETVI); assay: Post-emergence herbicidal action against SETVI; settings: dosage 320 g/ha
Outline: as §4

[16] = test system: Echinochloa crus-galli (ECHCG); assay: Post-emergence herbicidal action against ECHCG; settings: dosage 320 g/ha
Outline: as §4

[17] = test system: Verconica persica (VERPE); assay: Post-emergence herbicidal action against VERPE; settings: 320 g/ha, VERPE
Outline: as §4

[18] = test system: Amaranthus retroflexus (AMARE); assay: Post-emergence herbicidal action against AMARE; settings: 80 g/ha, visual rating about 3 weeks after treatment vs untreated controls (100% = plants have died, 0% = like control plants)
Outline: as §4

[19] = test system: Lolium rigidum (LOLRI); assay: Pre-emergence herbicidal action against LOLRI; settings: dosage 320 g/ha
Outline: as §1

[20] = test system: Setaria viridis (SETVI); assay: Pre-emergence herbicidal action against SETVI; settings: dosage 320 g/ha
Outline: as §1

[21] = test system: Alopecurus myosuroides (ALOMY); assay: Pre-emergence herbicidal action against ALOMY; settings: 320 g/ha; scored visually after about 3 weeks; 100% = plants have died
Outline: as §1

[22] = test system: Amaranthus retroflexus (AMARE); assay: Pre-emergence herbicidal action against AMARE; settings: 320 g/ha, visual scoring after about 3 weeks vs untreated controls
Outline: as §1

[23] = test system: Verconica persica (VERPE); assay: Pre-emergence herbicidal action against VERPE; settings: dosage 320 g/ha
Outline: as §1

[24] = 80 g/ha, effect in comparison to untreated controls
[25] = 320 g/ha, effect in comparison to untreated controls
[26] = 20 g/ha, effect vs untreated controls

| SMILES | Post-emergence action against BRSNW in % ([3]; 80 g/ha) [%] | Post-emergence action against ORYSA in % [4, 24] [%] | Post-emergence action against GLXMA in % ([5]; 80 g/ha) [%] | Pre-emergence action against TRZAS in % ([6]; 80 g/ha) [%] | Pre-emergence action against ZEAMX in % ([7]; 80 g/ha) [%] | Pre-emergence action against ZEAMX in % ([7]; 320 g/ha) [%] | Pre-emergence action against GLXMA in % ([8]; 80 g/ha) [%] | Pre-emergence action against GLXMA in % ([8]; 320 g/ha) [%] | Post-emergence action against BRSNW in % ([3]; 20 g/ha) [%] | Post-emergence action against TRZAS in % ([11]; 20 g/ha) [%] | Post-emergence action against TRZAS in % ([11]; 80 g/ha) [%] | Post-emergence action against ZEAMX in % (crop plant compatibility) [12] [%] | Post-emergence action against ZEAMX in % ([12]; 80 g/ha) [%] | Post-emergence action against ORYSA in % [4, 26] [%] | Post-emergence action against GLXMA in % ([5]; 20 g/ha) [%] | Pre-emergence action against TRZAS in % ([6]; 320 g/ha) [%] | Pre-emergence action against BRSNW in % ([13]; 80 g/ha) [%] | Pre-emergence action against BRSNW in % ([13]; 320 g/ha) [%] | Pre-emergence action against ORYSA in % ([14]; 80 g/ha) [%] | Pre-emergence action against ORYSA in % ([14]; 320 g/ha) [%] | other results |
| --- | --- | --- | --- | --- | --- | --- | --- | --- | --- | --- | --- | --- | --- | --- | --- | --- | --- | --- | --- | --- | --- |
| CCOC(=O)C(Oc1nn(-c2ccccn2)c(-c2ccc(F)nc2)c1Br)C(C)C (centres unmarked) [Example I-349] | 20 | 0 | 0 | 10 | 10 | 20 | 0 | 10 | – | – | – | – | – | – | – | – | – | – | – | – | Pre-emergence action against VIOTR in % [1]: 80%; Pre-emergence action against POLCO in % [2]: 80%; Post-emergence action against ORYSA in % [4, 25]: 10%; Pre-emergence action against DIGSA in % ([9]; 80 g/ha, visual scoring after about 3 weeks vs untreated controls): 80%; Pre-emergence action against DIGSA in % ([9]; dosage 320 g/ha): 90%; Post-emergence action against VIOTR in % [10]: 80% |
| COC(=O)C1CCCN(C(=O)COc2nn(-c3ccccn3)c(-c3ccc(F)nc3)c2Br)C1 (centres unmarked) [Example I-108] | – | 10 | 10 | 0 | 10 | 10 | 0 | 0 | 10 | 0 | 20 | 0 | 10 | 0 | 0 | 10 | 10 | 20 | 0 | 10 | – |
| C[C@@H](Oc1nn(-c2ncccc2F)c(-c2ccc(F)nc2)c1Br)C(=O)O [Example I-50] | 20 | 10 | 10 | 10 | 0 | 0 | – | – | 10 | 10 | 10 | 0 | 0 | 10 | 0 | 10 | 0 | 20 | – | – | – |
| CCOC(=O)COc1nn(-c2ncccc2F)c(-c2ccc(F)nc2)c1I [Example I-55] | 0 | 0 | 0 | 0 | 0 | 0 | 0 | 0 | 0 | 0 | 0 | 0 | 0 | 0 | 0 | 0 | 0 | 0 | 0 | 0 | – |
| COC(=O)CNC(=O)COc1nn(-c2ccccn2)c(-c2ccc(F)nc2)c1C1CC1 [Example I-70] | – | 0 | – | 10 | 0 | 0 | 10 | – | 20 | 0 | 10 | 0 | 10 | 0 | – | – | 20 | – | 0 | 10 | Post-emergence action against AMARE in % [18]: 90%; Pre-emergence action against LOLRI in % [19]: 90%; Pre-emergence action against SETVI in % [20]: 90%; Pre-emergence action against VIOTR in % [1]: 90%; Pre-emergence action against ALOMY [21]: 90%; Pre-emergence action against AMARE in % [22]: 90%; Pre-emergence action against VERPE in % [23]: 80% |

Second part, led by results:

| Post-emergence action against BRSNW in % ([3]; 80 g/ha) [%] | Post-emergence action against ORYSA in % [4, 24] [%] | Post-emergence action against GLXMA in % ([5]; 80 g/ha) [%] | Pre-emergence action against TRZAS in % ([6]; 80 g/ha) [%] | Pre-emergence action against ZEAMX in % ([7]; 80 g/ha) [%] | Pre-emergence action against ZEAMX in % ([7]; 320 g/ha) [%] | Pre-emergence action against GLXMA in % ([8]; 80 g/ha) [%] | Pre-emergence action against GLXMA in % ([8]; 320 g/ha) [%] | Post-emergence action against BRSNW in % ([3]; 20 g/ha) [%] | Post-emergence action against TRZAS in % ([11]; 20 g/ha) [%] | Post-emergence action against TRZAS in % ([11]; 80 g/ha) [%] | Post-emergence action against ZEAMX in % (crop plant compatibility) [12] [%] | Post-emergence action against ZEAMX in % ([12]; 80 g/ha) [%] | Post-emergence action against ORYSA in % [4, 26] [%] | Post-emergence action against GLXMA in % ([5]; 20 g/ha) [%] | Pre-emergence action against TRZAS in % ([6]; 320 g/ha) [%] | Pre-emergence action against BRSNW in % ([13]; 80 g/ha) [%] | Pre-emergence action against BRSNW in % ([13]; 320 g/ha) [%] | Pre-emergence action against ORYSA in % ([14]; 80 g/ha) [%] | Pre-emergence action against ORYSA in % ([14]; 320 g/ha) [%] | SMILES | other results |
| --- | --- | --- | --- | --- | --- | --- | --- | --- | --- | --- | --- | --- | --- | --- | --- | --- | --- | --- | --- | --- | --- |
| – | 0 | – | – | – | – | – | – | 0 | 0 | 0 | 0 | 0 | 0 | 0 | – | – | – | – | – | COC(=O)CNC(=O)COc1nn(-c2cccnc2C)c(-c2cncc(F)c2)c1Br [II-37] | Post-emergence action against SETVI in % [15]: 80%; Post-emergence action against TRZAS in % ([11]; 320 g/ha): 0%; Post-emergence action against ZEAMX in % ([12]; 320 g/ha): 0%; Post-emergence action against ORYSA in % [4, 25]: 0%; Post-emergence action against ECHCG in % [16]: 80%; Post-emergence action against VIOTR in % [10]: 80%; Post-emergence action against VERPE in % [17]: 90% |
| 0 | 20 | 0 | 20 | 0 | 20 | 0 | 0 | 0 | 0 | 0 | 0 | 0 | 0 | 0 | – | 20 | 20 | 0 | 0 | COC(=O)CN(C)C(=O)COc1nn(-c2ccnc(Cl)c2)c(-c2ccc(F)nc2)c1Br [III-21] | – |
| – | 0 | 0 | 0 | 0 | 0 | – | 20 | 0 | 0 | 0 | 0 | – | 0 | 0 | 0 | 0 | – | 0 | 10 | O=C(COc1nn(-c2ccnc(Cl)c2)c(-c2ccc(F)nc2)c1Br)NS(=O)(=O)CC(F)(F)F [III-20] | – |
